Laboratory results as given in ChEMBL document CHEMBL1201862, “PubChem BioAssay data set” (2004).
Active and inactive are the calls of the source. Cut-off read from the data, not from the text of the source: actives have a measured IC50 and inactives only a lower limit.

Target: Envelope glycoprotein gp160 (Human immunodeficiency virus 1, UniProt Q6QLK5)
Test: cell-free HIV fusion peptide-binding blockers – biochemical, uHTS, fluorescence dequenching, […] (AID 1986)

Envelope glycoprotein gp160, sequence (Q6QLK5 whole entry, the tested form may be a part): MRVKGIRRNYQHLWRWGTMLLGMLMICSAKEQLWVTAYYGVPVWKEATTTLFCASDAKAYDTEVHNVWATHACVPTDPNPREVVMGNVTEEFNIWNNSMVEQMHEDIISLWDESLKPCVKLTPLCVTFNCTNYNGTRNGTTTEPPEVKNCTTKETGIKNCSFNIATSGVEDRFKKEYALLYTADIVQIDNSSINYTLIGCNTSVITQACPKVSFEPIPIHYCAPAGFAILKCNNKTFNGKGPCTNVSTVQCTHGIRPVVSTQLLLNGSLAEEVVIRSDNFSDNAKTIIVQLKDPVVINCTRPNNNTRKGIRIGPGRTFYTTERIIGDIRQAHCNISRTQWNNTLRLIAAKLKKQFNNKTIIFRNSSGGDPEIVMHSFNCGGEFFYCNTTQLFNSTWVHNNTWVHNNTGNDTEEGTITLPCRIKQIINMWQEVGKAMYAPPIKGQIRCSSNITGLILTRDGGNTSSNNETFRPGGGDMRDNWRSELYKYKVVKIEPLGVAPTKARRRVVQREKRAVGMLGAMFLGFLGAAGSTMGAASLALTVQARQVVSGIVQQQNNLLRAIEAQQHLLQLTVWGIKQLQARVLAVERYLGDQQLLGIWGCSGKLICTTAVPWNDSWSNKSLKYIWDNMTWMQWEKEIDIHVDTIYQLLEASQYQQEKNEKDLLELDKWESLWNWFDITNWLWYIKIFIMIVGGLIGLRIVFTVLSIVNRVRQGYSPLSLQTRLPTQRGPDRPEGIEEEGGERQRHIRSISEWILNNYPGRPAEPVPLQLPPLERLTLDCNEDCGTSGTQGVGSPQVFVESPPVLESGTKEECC

| Structure (SMILES) | IC50 |
| --- | --- |
| O=[N+]([O-])c1cc(Cl)cc(/C=N/NC(=S)Nc2cc(S(=O)(=O)N3CCOCC3)ccc2Cl)c1O | 9.41 µM (active) |
| N#Cc1c(-c2ccccc2)nc(SCc2cccc(C(F)(F)F)c2)[nH]c1=O | 10.4 µM (active) |
